The results in this text go back to patent US20210236528A1, “COMPOSITION COMPRISING ISOMERS OF INOSITOL AND ITS USE” (SOCIETE DES PRODUITS NESTLE S.A., priority 2019, published 2021).

Data set [1] is described as follows: Plasma inositol isomers levels by glucose tolerance status (UHPLC-MSMS), withdrawn women from study 2. The data set is classed as in vivo, human. The settings on record: endogenous level; for Plasma inositol isomers levels, Mean: no administration; for plasma concentration in subjects with impaired glucose tolerance or type II diabetes in comparison to normal glucose tolerance / average plasma concentration in Asian subjects in comparison to Caucasian subjects: result in words; for average plasma concentration in Asian subjects in comparison to Caucasian subjects: subjects not having prediabetes or type II diabetes. As to the method:
(§1) Only withdrawn women from this study 2 were included in this sub-study. Women were from UK (N=46), NZ (N=89), SG (N=117). All the data (anthropometric and biochemical parameters) were collected and measured. Plasma and urine inositol isomers were measured using a new validated UHPLC-MSMS method. Study 2 was approved by different Institutional Review Boards and the study design published (Godfrey K M et al, Trials. 2017 Mar. 20; 18(1):131.). Subjects were classified as normoglycemic (NGT), impaired glucose tolerance (IGT), and type 2 diabetic mellitus (T2DM) based upon the results of fasting glucose and the oral glucose tolerance test (OGTT). Subjects with 2-hours glucose were levels <7.8 mmol/L were considered as normal glucose tolerant (NGT), while those with 2-hour glucose between 7.8-11.1 mmol/L were deemed as having impaired glucose tolerance (IGT). Individuals with fasting plasma glucose (IFG) level 5.6 mmol/L) were classified as having impaired fasting glucose. Both IFG and IGT subjects were grouped together. Subjects with 2-hours glucose >11.1 mmol/L were considered as having type 2 diabetic mellitus (T2DM). NGT group was further divided into 2 sub-groups named NGT with a “favorable” metabolic risk profile (abbreviated NGT_fav) and NGT with an “unfavorable” metabolic risk profile (abbreviated NGT_Unfav) to take into account the hyperinsulinemia affecting subjects in the NGT group. Inclusion criteria for NGT subjects with a favorable risk profile (NGT_fav) were the following ones: BMI<25 for Caucasian and <23 for Asian subjects; waist <80 cm; waist/hip ratio […]; HOMA2-IR<1.21. IGT/IFG and T2DM subjects were also grouped together into a dysglycemic group. In total, […] were reported: NGT_all; NGT_fav; NGT_unfav; IGT/IFG and; T2DM.
(§2) Blood samples were collected into EDTA-containing tubes and spot urine samples were collected and frozen at −80° C. until analysis. For inositol isomers determination, analysis was performed on an Accela UHPLC (Thermo Fisher Scientific Inc., Waltham, Mass., USA) coupled to a TSQ Vantage triple quadrupole (Thermo Fisher Scientific Inc., Waltham, Mass., USA) equipped with a heated electrospray ionization (HESI) source in negative mode. Chromatographic separation was achieved using gradient elution on an UHPLC Acquity BEH Amide (1.7 μm, 2.1 mm×150 mm) column and guard column (Vanguard BEH Amide 1.7 μm, 2.1 mm×10 mm; Waters Corporation, Milford, Mass., USA) at 30° C. at a flow rate of 400 μL/min. Mobile phase consisted of 90% acetonitrile-NH4OH 0.04% (eluent A) and 50% acetonitrile-NH4OH 0.04% (eluent B). Column temperature was kept at 30° C. The injection volumes were 3 μL and 5 μL for urine and plasma respectively. Plasma samples were thawed and briefly vortexed before transferring 100 μL of the sample into a 1.5 mL microtube. 50 μL of [2H6]-myo-inositol, then 500 μL of ACN containing 1% of formic acid were added for protein precipitation. The tubes were vortexed for 1 min and centrifuged at 10,000×g for 3 min. Supernatants were transferred into an SPE Ostro 96 well plate for phospholipid removal. Positive pressure (about 8 psi) was applied for elution and the filtrates were then evaporate to dryness in a vacuum centrifuge (45° C., 5 mbar, 6 h). Dry residues were dissolved in 400 μL of water and transferred into a 0.45 μm centrifugal filter containing 175 mg of mixed bed ion exchange resin Amberlite MB-3. Tubes were spun at 3000×g for 2 min then the filtrates were evaporated to dryness in vacuum centrifuge at 45° C., 5 mbar for 2 h. Finally, residues were reconstituted in vials with 80 μL of ACN/water (60/40) and injected for analysis.
Statistical analysis was performed using R software (version 3.2.3). Mean and standard deviation were calculated. The statistical model used as covariate the glucose tolerance status, the ethnicity, the menstrual cycle, the age of the subjects and the BMI. For some statistical analysis some raw data were log transformed in view of their distribution. […]

Data set [2] can be described thus: Urinary inositol isomers excretion by glucose tolerance status (UHPLC-MSMS), withdrawn women from study 2. The data set is classed as in vivo, human. The settings on record: endogenous, spot urine. As to the method:
as §1, §2
Urine samples were thawed and briefly vortexed before transferring 150 μL of sample into a 1.5-mL microtube. 100 μL of [2H6]-myo-inositol was added and the mixture was transferred into a 0.45 μm centrifugal filter containing 175 mg of mixed bed ion exchange resin Amberlite MB-3. […]

As to `O[C@H]1[C@H](O)[C@@H](O)[C@H](O)[C@@H](O)[C@H]1O` [Myo-inositol, cis-1,2,3,5-trans-4,6cyclohexanehexol], the “Plasma inositol isomers levels, Mean” value in data set [1] (IGT/IFG group, N=41 women) was found to be 23.23 µmol/L; in data set [1] (NGT (all) group, N=182 women) it was 25.91 µmol/L; in data set [1] (NGT_Fav group, N=63 women), 25.44 µmol/L; in data set [1] (NGT_Unfav group, N=119 women) it was 26.16 µmol/L; in data set [1] (T2DM group, N=26 women), 24.66 µmol/L. Moreover, the “plasma concentration in subjects with impaired glucose tolerance or type II diabetes in comparison to normal glucose tolerance” value in data set [1] was “lower”. Also, the “average plasma concentration in Asian subjects in comparison to Caucasian subjects” value in data set [1] is given as “lower”. Also, the “Urinary inositol isomers excretion, Mean” value in data set [2] (IGT/IFG group) is reported as 6.35 μmol/mmol of creatinine; in data set [2] (NGT (all) group) it was 9.21 μmol/mmol of creatinine; in data set [2] (NGT_Fav group), 10.86 μmol/mmol of creatinine; in data set [2] (NGT_Unfav group), 8.33 μmol/mmol of creatinine; in data set [2] (T2DM group), 17.97 μmol/mmol of creatinine.
As to `O[C@H]1[C@H](O)[C@@H](O)[C@H](O)[C@@H](O)[C@@H]1O` [Scyllo-inositol, (1r,2r,3r,4r,5r,6r)-Cyclohexane-1,2,3,4,5,6-hexol], the “Plasma inositol isomers levels, Mean” value in data set [1] (IGT/IFG group, N=41 women) was determined as 0.46 µmol/L; in data set [1] (NGT (all) group, N=182 women) it was 0.67 µmol/L; in data set [1] (NGT_Fav group, N=63 women) it was 0.72 µmol/L; in data set [1] (NGT_Unfav group, N=119 women), 0.64 µmol/L; in data set [1] (T2DM group, N=26 women) it was 0.37 µmol/L. Also, the “plasma concentration in subjects with impaired glucose tolerance or type II diabetes in comparison to normal glucose tolerance” value in data set [1] is “lower”. Besides, the “average plasma concentration in Asian subjects in comparison to Caucasian subjects” value in data set [1] is “lower”. Moreover, the “Urinary inositol isomers excretion, Mean” value in data set [2] (IGT/IFG group) is reported as 3.31 μmol/mmol of creatinine; in data set [2] (NGT (all) group), 5.04 μmol/mmol of creatinine; in data set [2] (NGT_Fav group), 6.34 μmol/mmol of creatinine; in data set [2] (NGT_Unfav group) it was 4.34 μmol/mmol of creatinine; in data set [2] (T2DM group), 3.36 μmol/mmol of creatinine.
`OC1C(O)C(O)C(O)C(O)C1O` (stereo not shown) [Chiro-inositol]: the “Plasma inositol isomers levels, Mean” value came out at 0.32 µmol/L in data set [1] (IGT/IFG group, N=41 women); 0.23 µmol/L in data set [1] (NGT (all) group, N=182 women); 0.26 µmol/L in data set [1] (NGT_Fav group, N=63 women); 0.22 µmol/L in data set [1] (NGT_Unfav group, N=119 women); 0.22 µmol/L in data set [1] (T2DM group, N=26 women). Also, the “Urinary inositol isomers excretion, Mean” value in data set [2] (IGT/IFG group) is reported as 0.20 μmol/mmol of creatinine; in data set [2] (NGT (all) group), 0.24 μmol/mmol of creatinine; in data set [2] (NGT_Fav group), 0.26 μmol/mmol of creatinine; in data set [2] (NGT_Unfav group), 0.22 μmol/mmol of creatinine; in data set [2] (T2DM group), 0.42 μmol/mmol of creatinine.
